One molecule from ChEMBL document CHEMBL3525934 (Drug Metab Dispos, 2013) can be followed below.

Series [1] addresses T1, Cytochrome P450 2C18 (Homo sapiens, UniProt P33260).
T1 sequence (P33260 whole entry): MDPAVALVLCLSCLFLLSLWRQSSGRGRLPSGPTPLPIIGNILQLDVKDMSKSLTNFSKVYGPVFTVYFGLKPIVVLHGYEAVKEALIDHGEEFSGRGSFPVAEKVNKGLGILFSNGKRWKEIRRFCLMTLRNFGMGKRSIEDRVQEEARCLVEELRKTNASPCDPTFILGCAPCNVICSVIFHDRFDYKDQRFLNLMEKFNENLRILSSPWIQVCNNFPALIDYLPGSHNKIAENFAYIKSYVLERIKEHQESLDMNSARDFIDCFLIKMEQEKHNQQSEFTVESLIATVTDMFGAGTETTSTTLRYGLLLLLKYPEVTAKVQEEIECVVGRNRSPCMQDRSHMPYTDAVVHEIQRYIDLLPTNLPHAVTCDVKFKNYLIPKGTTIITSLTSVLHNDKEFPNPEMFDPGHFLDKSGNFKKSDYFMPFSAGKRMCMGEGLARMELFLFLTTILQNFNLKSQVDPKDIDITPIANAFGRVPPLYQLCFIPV
Nature of the series: Drug metabolism in supersomes expressing human recombinant CYP2C18 assessed as enzyme-mediated cyanide adduct formation at 100 uM after 30 mins measured per nmol of P450 by HPLC analysis in presence of KCN. As to conditions: 0.5 h. Format: ADME.

The target in series [2] is T1, Cytochrome P450 2C18. Nature of the series: Drug metabolism in supersomes expressing human recombinant CYP2C18 assessed as enzyme-mediated clozapine-N-oxide metabolite formation at 10 uM after 30 mins measured per nmol of P450 by HPLC analysis. Format: ADME. Particulars: 0.5 h.

`CN1CCN(C2=Nc3cc(Cl)ccc3Nc3ccccc32)CC1` [CLOZAPINE]: the figures for the Drug metabolism in series [1] and in series [2] were 0.41 nmol/min and 0.025 nmol/min/nmol P450, respectively.
